# Patent US9150519B2, “6-amino-pyrimidine-4-carboxamide derivatives and related compounds which bind to the sphingosine 1-phosphate (S1P) receptor for the treatment of multiple sclerosis” (MERCK SERONO SA, priority 2007, dated 2015)
# Biological target: S1P1 (Homo sapiens (Human), UniProt P21453)
# Assay: 35S-GTPγS binding assay, S1P1 membranes
# Format: biochemical
# Conditions: membranes from CHO cells expressing S1P1; read-out: S1P1 GTPyS EC50
# Procedure: Membranes were prepared from CHO cells expressing S1P1 or S1P3 for use in ligand and […] binding studies. Cells were suspended in 50 mM TRIS, pH 7.4, 2 mM EDTA, 250 mM Sucrose (buffer A) and 1× Complete protease inhibitor cocktail (Roche), and disrupted at 4° C. by nitrogen decompression using a cell disruption bomb (Parr Instrument). Following centrifugation at 1000 RPM for 10 min at 4° C., the supernatant was suspended in buffer A and centrifuged again at 19000 RPM for 60 min at 4° C. The pellet was then suspended in 10 mM HEPES, pH 7.4, 1 mM EDTA, 250 mM Sucrose (Buffer B), and 1× Complete EDTA-free protease inhibitor cocktail and homogenized using a potter. Membranes were flash frozen in liquid nitrogen and stored at −80° C. [33P]sphingosine 1-phosphate (3000 Ci/mmol; American Radiolabeled Chemicals, Inc.) was added to test compounds in DMSO. […] Binding was performed for 60 min at room temperature on a shaker and bound radioactivity was measured on a PerkinElmer 1450 MicroBeta counter. Specific binding was calculated by subtracting remaining radioactivity in the presence of 1000-fold excess of unlabeled S1P. Binding data were analyzed using the GraphPad Prism program.
# The assay was initiated with the addition of 20 μl of 1.5 nM [35S]-GTPγS (1100 Ci/mmol; GE Healthcare) in assay buffer. After 60 min incubation at 30° C. on a shaker, plates were centrifuged for 10 min at 2000 RPM. Supernatant was discarded and membrane bound radioactivity was measured on a PerkinElmer 1450 MicroBeta counter. Triplicate samples were averaged and expressed as % response relative to SIP activation in absence of compound (n=2).
# S1P1, sequence (P21453 whole entry, species assumed): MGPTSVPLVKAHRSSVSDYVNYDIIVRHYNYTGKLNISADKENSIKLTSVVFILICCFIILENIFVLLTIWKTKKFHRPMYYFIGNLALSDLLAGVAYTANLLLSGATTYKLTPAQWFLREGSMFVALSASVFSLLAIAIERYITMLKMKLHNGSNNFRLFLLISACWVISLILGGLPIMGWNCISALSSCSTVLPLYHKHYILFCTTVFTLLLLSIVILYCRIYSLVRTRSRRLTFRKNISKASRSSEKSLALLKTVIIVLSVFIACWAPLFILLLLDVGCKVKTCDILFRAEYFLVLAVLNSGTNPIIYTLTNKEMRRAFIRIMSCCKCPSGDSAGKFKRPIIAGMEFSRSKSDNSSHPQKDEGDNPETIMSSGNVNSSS
row,SMILES,EC50 [nM]
1,Cc1cc(S(=O)(=O)N(C)CC(=O)O)ccc1NC(=O)c1cc(N(CC2CC2)C2CCCCC2)ncn1 [Example 1-101],127
2,COCCN(CC1CC1)c1cc(C(=O)Nc2ccc(CN)cc2)ncn1 [Example 1-89],1490
3,O=C(Nc1ccc(S(=O)(=O)NCC(O)CO)cc1)c1cc(N(CC2CC2)C2CCCCC2)ncn1 (centres unmarked) [Example 1-51],60
4,CCCN(CC1CC1)c1cc(C(=O)Nc2ccc(S(=O)(=O)N(C)CC(=O)O)cc2C)ncn1 [Example 1-102],1230
5,CCCN(CC1CC1)c1cc(C(=O)Nc2ccc(CN(C)CCO)cc2C)ncn1 [Example 1-96],391
6,O=C(Nc1ccncc1)c1cc(N(CC2CC2)C2CCCCC2)ncn1 [Example 1-49],107
7,CCCN(CCC)c1cc(C(=O)Nc2ccc(CN)cc2)ncn1 [Example 1-72],497
8,CCCN(CC1CC1)c1cc(C(=O)Nc2ccc(CN3CCOCC3)cc2C)ncn1 [Example 1-93],1470
9,CC(C)(C)OC(=O)CNCc1ccc(NC(=O)c2cc(N(CC3CC3)C3CCCCC3)ncn2)cc1 [Example 1-73],724
10,COCCN(c1cc(C(=O)Nc2ccc3[nH]ncc3c2)ncn1)C(C)C [Example 1-87],216
11,NC(=O)c1ccc(NC(=O)c2cc(N(CC3CC3)C3CCCCC3)ncn2)cc1 [Example 1-50],73
12,NS(=O)(=O)c1ccc(NC(=O)c2cc(NC3CCCCC3)ncn2)cc1 [Example 1-17],1990
13,CN(CC(=O)OC(C)(C)C)Cc1ccc(NC(=O)c2cc(N(CC3CC3)C3CCCCC3)ncn2)cc1 [Example 1-75],2690
14,O=C(Nc1ccc(O)c(F)c1)c1cc(NC2CCCCC2)ncn1 [Example 1-14],1580
15,CN(c1cc(C(=O)Nc2ccc(S(=O)(=O)NCCO)cc2)ncn1)C1CCCCC1 [Example 1-37],907
16,CCOCN(CCOC)c1cc(C(=O)Nc2ccc(S(N)(=O)=O)cc2C)ncn1 [Example 1-59],558
17,CCNS(=O)(=O)c1ccc(NC(=O)c2cc(N(C)C3CCCCC3)ncn2)cc1 [Example 1-31],2000
18,NCc1ccc(NC(=O)c2cc(N(CC3CC3)C3CCCCC3)ncn2)cc1 [Example 1-48],39
19,CCCN(CC1CC1)c1cc(C(=O)Nc2ccc(CNC(C)C(=O)O)cc2C)ncn1 (centres unmarked) [Example 1-104],517

row,SMILES,EC50 [nM]
1,COCCNS(=O)(=O)c1ccc(NC(=O)c2cc(N(C)C3CCCCC3)ncn2)cc1 [Example 1-42],2280
2,CCCN(CC1CC1)c1cc(C(=O)Nc2ccc(CNCCOC)cc2C)ncn1 [Example 1-95],821
3,CCC(NCc1ccc(NC(=O)c2cc(N(CC3CC3)C3CCCCC3)ncn2)cc1)C(=O)OC (centres unmarked) [Example 1-74],2160
4,Cc1cc(O)ccc1NC(=O)c1cc(NC2CCCCCC2)ncn1 [Example 1-23],970
5,Cc1cc(O)ccc1NC(=O)c1cc(N(C)C2CCC(C)CC2)ncn1 (centres unmarked) [Example 1-32],610
6,Cc1cc(O)ccc1NC(=O)c1cc(N(C)C2CCCCC2)ncn1 [Example 1-21],660
7,CCCN(CC1CC1)c1cc(C(=O)Nc2ccc(S(=O)(=O)NCC(=O)O)cc2C)ncn1 [Example 1-103],208
8,CCCN(CC1CC1)c1cc(C(=O)Nc2ccc(CN)cc2)ncn1 [Example 1-88],101
9,COCCN(CCOC)c1cc(C(=O)Nc2ccc3[nH]ncc3c2)ncn1 [Example 1-70],1110
10,O=C(Nc1ccc(CN2CCNCC2)cc1)c1cc(N(CC2CC2)C2CCCCC2)ncn1 [Example 1-78],328
11,COc1cc(NS(C)(=O)=O)ccc1NC(=O)c1cc(NC2CCCCC2)ncn1 [Example 1-27],374
12,CCC(NCc1ccc(NC(=O)c2cc(N(CC3CC3)C3CCCCC3)ncn2)cc1)C(=O)O (centres unmarked) [Example 1-80],287
13,CCCN(CC1CC1)c1cc(C(=O)Nc2ccc(CN3CCCC3=O)cc2C)ncn1 [Example 1-98],706
14,COCCN(c1cc(C(=O)Nc2ccc3[nH]ncc3c2)ncn1)C1CCCCC1 [Example 1-66],32
15,CCCN(CC1CC1)c1cc(C(=O)Nc2ccc(CN(C)C)cc2C)ncn1 [Example 1-94],265
16,CN(c1cc(C(=O)Nc2ccc(S(N)(=O)=O)cc2)ncn1)C1CCCCC1 [Example 1-30],674
17,Cc1cc(O)ccc1NC(=O)c1cc(NC2CCCCC2C)ncn1 (centres unmarked) [Example 1-24],1680
18,Cc1cc(S(N)(=O)=O)ccc1NC(=O)c1cc(OC2CCCCC2)ncn1 [Example 1-65],13300

# More lines, now with the values ahead:
row,EC50 [nM],SMILES
1,860,CCCN(CC1CC1)c1cc(C(=O)Nc2ccc3[nH]nc(CCC(=O)OC)c3c2)ncn1 [Example 1-123]
2,1050,CCCN(CC1CC1)c1cc(C(=O)Nc2cccc(Cn3cccn3)c2)ncn1 [Example 1-148]
3,6350,CCCN(CC1CC1)c1cc(C(=O)Nc2ccc3nn(CC(N)=O)cc3c2)ncn1 [Example 1-118]
4,1120,CCCN(CC1CC1)c1cc(C(=O)Nc2cccc(Cn3cncn3)c2)ncn1 [Example 1-152]
5,2040,Cn1cnnc1-c1ccc(NC(=O)c2cc(N(CC3CC3)C3CCCCC3)ncn2)cc1 [Example 1-136]
6,481,CCCN(CC1CC1)c1cc(C(=O)Nc2cccc(Cn3ccnc3)c2)ncn1 [Example 1-153]
7,226,O=C(O)CCS(=O)(=O)Cc1ccc(NC(=O)c2cc(N(CC3CC3)C3CCCCC3)ncn2)cc1 [Example 1-133]
8,1070,CCCN(CC1CC1)c1cc(C(=O)Nc2ccc3c(cnn3CC(N)=O)c2)ncn1 [Example 1-117]
9,594,CCCN(CC1CC1)c1cc(C(=O)Nc2cccc3[nH]ncc23)ncn1 [Example 1-134]
10,238,CCCN(CC1CC1)c1cc(C(=O)Nc2ccc(S(=O)(=O)NCCCC(=O)O)cc2C)ncn1 [Example 1-108]
11,346,O=C(Nc1ccc(Cn2cncn2)cc1)c1cc(N(CC2CC2)C2CCCCC2)ncn1 [Example 1-137]
12,55,CCCN(CC1CC1)c1cc(C(=O)Nc2ccc(Cn3cncn3)cc2)ncn1 [Example 1-145]
13,4360,O=C(Nc1ccc(C(=O)O)c(F)c1)c1cc(N(CC2CC2)C2CCCCC2)ncn1 [Example 1-122]
14,807,CCCN(CC1CC1)c1cc(C(=O)Nc2ccc(CN3CCC3)cc2C)ncn1 [Example 1-154]
15,537,CCOC(=O)CCS(=O)(=O)Cc1ccc(NC(=O)c2cc(N(CC3CC3)C3CCCCC3)ncn2)cc1 [Example 1-130]
16,38,CCCN(CC1CC1)c1cc(C(=O)Nc2cccc(-n3ccnc3)c2)ncn1 [Example 1-147]
17,1010,CCCN(CC1CC1)c1cc(C(=O)Nc2ccc3nn(CC(=O)O)cc3c2)ncn1 [Example 1-121]
18,3120,CCCN(CC1CC1)c1cc(C(=O)Nc2ccc(CS(=O)(=O)CCC(=O)O)cc2)ncn1 [Example 1-135]
19,816,CCCN(CC1CC1)c1cc(C(=O)Nc2ccc(CN(C)CC(=O)O)cc2C)ncn1 [Example 1-128]

row,EC50 [nM],SMILES
1,1410,CCCN(CC1CC1)c1cc(C(=O)Nc2ccc(CN3CCC(O)CC3)cc2C)ncn1 [Example 1-140]
2,268,CCCN(CC1CC1)c1cc(C(=O)Nc2ccc(CC3COC(=O)N3)cc2)ncn1 (centres unmarked) [Example 1-150]
3,1680,CCOC(=O)CCCS(=O)(=O)c1ccc(NC(=O)c2cc(N(CC3CC3)C3CCCCC3)ncn2)cc1 [Example 1-131]
4,79,CCCN(CC1CC1)c1cc(C(=O)Nc2cccc(-n3cncn3)c2)ncn1 [Example 1-143]
5,3260,CCCN(CC1CC1)c1cc(C(=O)Nc2ccc3c(cnn3CC(=O)O)c2)ncn1 [Example 1-116]
6,443,CCCN(CC1CC1)c1cc(C(=O)Nc2ccc(CN3CCC(C(=O)O)CC3)cc2C)ncn1 [Example 1-138]
7,2480,CCCN(CC1CC1)c1cc(C(=O)Nc2ccc(CN3CCC[C@@H]3COC)cc2C)ncn1 [Example 1-139]
8,2760,CCCN(CC1CC1)c1cc(C(=O)Nc2ccc3[nH]cnc3c2)ncn1 [Example 1-125]
9,1710,CCCN(CC1CC1)c1cc(C(=O)Nc2ccc3[nH]nc(CCC(=O)O)c3c2)ncn1 [Example 1-129]
10,2340,CCCN(CC1CC1)c1cc(C(=O)Nc2ccc(S(C)(=O)=O)cc2)ncn1 [Example 1-110]
11,596,CCCN(CC1CC1)c1cc(C(=O)Nc2ccc3nn(CC(=O)OCC)cc3c2)ncn1 [Example 1-120]
12,1540,CCCN(CC1CC1)c1cc(C(=O)Nc2cccc(-n3ccnc3C)c2)ncn1 [Example 1-144]
13,279,CCCN(CC1CC1)c1cc(C(=O)Nc2ccc(-n3cncn3)cc2)ncn1 [Example 1-146]
14,1320,CCCN(CC1CC1)c1cc(C(=O)Nc2ccc3nn(CC(=O)N(C)C)cc3c2)ncn1 [Example 1-114]
15,2840,CCCN(CC1CC1)c1cc(C(=O)Nc2ccc3c(cnn3CC(=O)N(C)C)c2)ncn1 [Example 1-115]
16,465,CCCN(CC1CC1)c1cc(C(=O)Nc2ccc(CN3CCC(O)C3)cc2C)ncn1 (centres unmarked) [Example 1-142]
17,2290,CCCN(CC1CC1)c1cc(C(=O)Nc2ccc(CN3CCCC(CO)C3)cc2C)ncn1 (centres unmarked) [Example 1-141]
18,1500,CCCN(CC1CC1)c1cc(C(=O)Nc2ccc(S(=O)(=O)CCCC(=O)O)cc2)ncn1 [Example 1-124]
